Reference: ChEMBL document CHEMBL1141575, “Preparation and in vitro biological evaluation of tetrapyrrole ethanolamide derivatives as potential anticancer agents” (Bioorg Med Chem Lett, 2008)

Columns and labels:
K562 [1] = assay: Survival of human K562 cells at 50 uM under deem light after 96 hrs by MTT assay relative to control; format: functional; conditions: K562, 96 h, read-out: Survival
[2] = Survival of human H209 cells at 100 uM under deem light after 96 hrs by MTT assay relative to control; format: functional; conditions: NCI-H209, 96 h, read-out: Survival
[3] = Survival of human H209 cells at 0.1 uM under deem light after 96 hrs by MTT assay relative to control; format: functional; conditions: NCI-H209, 96 h, read-out: Survival
SiHa [4] = assay: Survival of human SIHA cells at 50 uM under deem light after 96 hrs by MTT assay relative to control; format: functional; conditions: read-out: Survival
K562 [5] = assay: Survival of human K562 cells at 15.7 uM under deem light after 96 hrs by MTT assay relative to control; format: functional; conditions: K562, 96 h, read-out: Survival
[6] = Survival of human 2780.9S cells at 100 uM under deem light after 96 hrs by MTT assay relative to control; format: functional; conditions: read-out: Survival
SiHa [7] = assay: Survival of human SIHA cells at 100 uM under deem light after 96 hrs by MTT assay relative to control; format: functional; conditions: read-out: Survival
[8] = Cytotoxicity against human MDA-MB cells under deem light after 96 hrs by MTT assay; format: functional, cell-based
[9] = Survival of human MDA-MB cells at 0.1 uM under deem light after 96 hrs by MTT assay relative to control; format: functional; conditions: read-out: Survival
Daudi = assay: Cytotoxicity against human Daudi cells under deem light after 96 hrs by MTT assay; format: functional, cell-based
[10] = Photohemolysis in human RBC assessed as concentration required to 50% hemolysis under light exposure for 10 mins; format: ADME, cell-based, Erythrocyte; conditions: human red blood cells, read-out: Activity
[11] = Cytotoxicity against human 2780.9S cells under deem light after 96 hrs by MTT assay; format: functional, cell-based
NCI-H69 [12] = assay: Survival of human H69 cells at 0.1 uM under deem light after 96 hrs by MTT assay relative to control; format: functional; conditions: NCI-H69, 96 h, read-out: Survival
[13] = Photohemolysis in human RBC assessed as concentration required to 50% hemolysis under light exposure for 5 mins; format: ADME, cell-based, Erythrocyte; conditions: human red blood cells, read-out: Activity
Raji [14] = assay: Survival of human Raji cells at 50 uM under deem light after 96 hrs by MTT assay relative to control; format: functional; conditions: read-out: Survival
[15] = Survival of human 2780.9S cells at 15.7 uM under deem light after 96 hrs by MTT assay relative to control; format: functional; conditions: read-out: Survival
HeLa [16] = assay: Survival of human HeLa cells at 50 uM under deem light after 96 hrs by MTT assay relative to control; format: functional; conditions: read-out: Survival
[17] = Survival of human MDA-MB cells at 100 uM under deem light after 96 hrs by MTT assay relative to control; format: functional; conditions: read-out: Survival
NCI-H69 [18] = assay: Cytotoxicity against human H69 cells under deem light after 96 hrs by MTT assay; format: functional, cell-based; conditions: NCI-H69, 96 h
NCI-H69 [19] = assay: Survival of human H69 cells at 1 uM under deem light after 96 hrs by MTT assay relative to control; format: functional; conditions: NCI-H69, 96 h, read-out: Survival
Raji [20] = assay: Survival of human Raji cells at 1 uM under deem light after 96 hrs by MTT assay relative to control; format: functional; conditions: read-out: Survival
K562 [21] = assay: Cytotoxicity against human K562 cells under deem light after 96 hrs by MTT assay; format: functional, cell-based; conditions: K562, 96 h
Raji [22] = assay: Survival of human Raji cells at 0.1 uM under deem light after 96 hrs by MTT assay relative to control; format: functional; conditions: read-out: Survival
HeLa [23] = assay: Survival of human HeLa cells at 1 uM under deem light after 96 hrs by MTT assay relative to control; format: functional; conditions: read-out: Survival
NCI-H69 [24] = assay: Survival of human H69 cells at 100 uM under deem light after 96 hrs by MTT assay relative to control; format: functional; conditions: NCI-H69, 96 h, read-out: Survival
SiHa [25] = assay: Survival of human SIHA cells at 1 uM under deem light after 96 hrs by MTT assay relative to control; format: functional; conditions: read-out: Survival
Raji [26] = assay: Cytotoxicity against human Raji cells under deem light after 96 hrs by MTT assay; format: functional, cell-based
SiHa [27] = assay: Cytotoxicity against human SIHA cells under deem light after 96 hrs by MTT assay; format: functional, cell-based
[28] = Survival of human H209 cells at 50 uM under deem light after 96 hrs by MTT assay relative to control; format: functional; conditions: NCI-H209, 96 h, read-out: Survival
HeLa [29] = assay: Cytotoxicity against human HeLa cells under deem light after 96 hrs by MTT assay; format: functional, cell-based
HeLa [30] = assay: Survival of human HeLa cells at 100 uM under deem light after 96 hrs by MTT assay relative to control; format: functional; conditions: read-out: Survival
[31] = Survival of human 2780.9S cells at 50 uM under deem light after 96 hrs by MTT assay relative to control; format: functional; conditions: read-out: Survival
K562 [32] = assay: Survival of human K562 cells at 100 uM under deem light after 96 hrs by MTT assay relative to control; format: functional; conditions: K562, 96 h, read-out: Survival
[33] = Survival of human MDA-MB cells at 15.7 uM under deem light after 96 hrs by MTT assay relative to control; format: functional; conditions: read-out: Survival
Raji [34] = assay: Survival of human Raji cells at 15.7 uM under deem light after 96 hrs by MTT assay relative to control; format: functional; conditions: read-out: Survival
[35] = Survival of human H209 cells at 15.7 uM under deem light after 96 hrs by MTT assay relative to control; format: functional; conditions: NCI-H209, 96 h, read-out: Survival
[36] = Survival of human MDA-MB cells at 10 uM under deem light after 96 hrs by MTT assay relative to control; format: functional; conditions: read-out: Survival
HeLa [37] = assay: Survival of human HeLa cells at 0.1 uM under deem light after 96 hrs by MTT assay relative to control; format: functional; conditions: read-out: Survival
[38] = Photohemolysis in human RBC in absence of light; format: ADME, cell-based; conditions: erythrocyte
[39] = Survival of human 2780.9S cells at 0.1 uM under deem light after 96 hrs by MTT assay relative to control; format: functional; conditions: read-out: Survival
Raji [40] = assay: Survival of human Raji cells at 100 uM under deem light after 96 hrs by MTT assay relative to control; format: functional; conditions: read-out: Survival
[41] = Survival of human MDA-MB cells at 50 uM under deem light after 96 hrs by MTT assay relative to control; format: functional; conditions: read-out: Survival
K562 [42] = assay: Survival of human K562 cells at 0.1 uM under deem light after 96 hrs by MTT assay relative to control; format: functional; conditions: K562, 96 h, read-out: Survival
K562 [43] = assay: Survival of human K562 cells at 1 uM under deem light after 96 hrs by MTT assay relative to control; format: functional; conditions: K562, 96 h, read-out: Survival
[44] = Survival of human H209 cells at 1 uM under deem light after 96 hrs by MTT assay relative to control; format: functional; conditions: NCI-H209, 96 h, read-out: Survival
NCI-H69 [45] = assay: Survival of human H69 cells at 15.7 uM under deem light after 96 hrs by MTT assay relative to control; format: functional; conditions: NCI-H69, 96 h, read-out: Survival
NCI-H69 [46] = assay: Survival of human H69 cells at 50 uM under deem light after 96 hrs by MTT assay relative to control; format: functional; conditions: NCI-H69, 96 h, read-out: Survival
[47] = Photohemolysis in human RBC at 125 nM under exposure to light for 10 mins; format: ADME, cell-based, Erythrocyte; conditions: human red blood cells, read-out: Activity
[48] = Survival of human 2780.9S cells at 1 uM under deem light after 96 hrs by MTT assay relative to control; format: functional; conditions: read-out: Survival
[49] = Survival of human MDA-MB cells at 1 uM under deem light after 96 hrs by MTT assay relative to control; format: functional; conditions: read-out: Survival
HeLa [50] = assay: Survival of human HeLa cells at 15.7 uM under deem light after 96 hrs by MTT assay relative to control; format: functional; conditions: read-out: Survival

In the case of `CCCOC(C)C1=C(C)c2cc3[nH]c(cc4nc(cc5[nH]c(cc1n2)c(C)c5CCC(=O)NCCO)C(CCC(=O)NCCO)=C4C)c(C)c3C(C)OCCC` (stereo unspecified) [HEMATOPORPHYRIN PROPYLETHER ETHANOLAMIDE], the viability at 50 µM (K562 [1]) is reported as 5.7%, the viability at 100 µM [2] is reported as 9.8% and the viability at 0.1 µM [3] is reported as 97.8%. It also gave a viability at 50 µM (SiHa [4]) of 2.2%, a viability at 15.7 µM (K562 [5]) of 28.5% and a viability at 100 µM [6] of 6.5%. It also gave a viability at 100 µM (SiHa [7]) of 6.7%, an IC50 [8] of 12 µM and a viability at 0.1 µM [9] of 137%. The IC50 (Daudi) was 22 µM, the HC50 at 10 min [10] was 210 nM and the IC50 [11] was 16 µM. For the same molecule, the viability at 0.1 µM (NCI-H69 [12]) was 95.5%, the HC50 at 5 min [13] was 90 nM and the viability at 50 µM (Raji [14]) was 5.9%. The viability at 15.7 µM [15] was 19.3%, the viability at 50 µM (HeLa [16]) was 7.4% and the viability at 100 µM [17] was 5.2%. The IC50 (NCI-H69 [18]) was 22 µM, the viability at 1 µM (NCI-H69 [19]) was 97% and the viability at 1 µM (Raji [20]) was 99.5%. The IC50 (K562 [21]) was 22 µM, the viability at 0.1 µM (Raji [22]) was 96.1% and the viability at 1 µM (HeLa [23]) was 119%. It also gave a viability at 100 µM (NCI-H69 [24]) of 14.4%, a viability at 1 µM (SiHa [25]) of 100% and an IC50 (Raji [26]) of 21 µM. It also gave an IC50 (SiHa [27]) of 44 µM, a viability at 50 µM [28] of 8.6% and an IC50 (HeLa [29]) of 21 µM. For the same molecule, the viability at 100 µM (HeLa [30]) was 10.5%, the viability at 50 µM [31] was 12.3% and the viability at 100 µM (K562 [32]) was 6.67%. For the same molecule, the viability at 15.7 µM [33] was 24.3%, the viability at 15.7 µM (Raji [34]) was 23.6% and the viability at 15.7 µM [35] was 16.1%. The viability at 10 µM [36] was 104%, the viability at 0.1 µM (HeLa [37]) was 99.6% and the Activity [38] was “Non-toxic”. For the same molecule, the viability at 0.1 µM [39] was 106%, the viability at 100 µM (Raji [40]) was 5.4% and the viability at 50 µM [41] was 7.4%. It also gave a viability at 0.1 µM (K562 [42]) of 72.9%, a viability at 1 µM (K562 [43]) of 84.7% and a viability at 1 µM [44] of 105%. The viability at 15.7 µM (NCI-H69 [45]) was 17.1%, the viability at 50 µM (NCI-H69 [46]) was 16.1% and the hemolysis at 10 min, 0.125 µM [47] was 100%. It also gave a viability at 1 µM [48] of 100%, a viability at 1 µM [49] of 112% and a viability at 15.7 µM (HeLa [50]) of 7.8%.
